The text below walks through data of publication PMC5684193 (2017).

In experiment [1] the test system is CBA-1 (DNA, aptamer) CCCCCTGGGTCGGGAGGGAAGGGGGTTGGGGGTGCGGG
Put plainly: ITC. The following applies: 140 mM NaCl, 2.5 mM KCl, K/Na phosphate (PBS), 2.5 mM MgCl2; PBS with MgCl2, pH 7.4, 25 °C.

The subject of experiment [2] is CBA-1-3G3T (DNA, aptamer) CCCCCTTTTTCTTTATTTAAGGGGGTTGGGGGTGCTTT
Put plainly: ITC. Particulars: 140 mM NaCl, 2.5 mM KCl, K/Na phosphate (PBS), 2.5 mM MgCl2; PBS with MgCl2, pH 7.4, 25 °C; 250 µM codeine in syringe.

The subject of experiment [3] is CBA-1-G34R (DNA, aptamer) CCCCCTGGGTCGGGAGGGAAGGGGGTTGGGGGTCGGG
Put plainly: ITC. Particulars: 140 mM NaCl, 2.5 mM KCl, K/Na phosphate (PBS), 2.5 mM MgCl2; PBS with MgCl2, pH 7.4, 25 °C; 250 µM codeine in syringe.

For experiment [4], the system named is CBA-1-GGC-4G4 (DNA, aptamer) CCCCCCCCTGGGGTCGGGGAGGGGAAGGGGGGGGTTGGGGGGGGTGCGGGG
As to the kind of experiment: ITC. The following applies: 140 mM NaCl, 2.5 mM KCl, K/Na phosphate (PBS), 2.5 mM MgCl2; PBS with MgCl2, pH 7.4, 25 °C.

Experiment [5] relates to CBA-1-A14AP (DNA, aptamer, 2-aminopurine at 14) CCCCCTGGGTCGGGAGGGAAGGGGGTTGGGGGTGCGGG
As to the kind of experiment: 2-aminopurine fluorescence quenching. The following applies: 140 mM NaCl, 2.5 mM KCl, K/Na phosphate (PBS), 2.5 mM MgCl2; 1 µM codeine, 25 °C.

For experiment [6], the system named is CBA-1-G34C35R (DNA, aptamer) CCCCCTGGGTCGGGAGGGAAGGGGGTTGGGGGTGGG
Put plainly: ITC. Particulars: 140 mM NaCl, 2.5 mM KCl, K/Na phosphate (PBS), 2.5 mM MgCl2; PBS with MgCl2, pH 7.4, 25 °C; 250 µM codeine in syringe.

In experiment [7] the test system is CBA-1-1/CBA-1-2 (DNA, aptamer) CCCCCTGGGTCGGGAGGGAAGGGGGT/TGGGGGTGCGGG
As to the kind of experiment: 1H NMR. The following applies: 140 mM NaCl, 2.5 mM KCl, K/Na phosphate (PBS), 10% D2O, 25 °C, 200 µM DNA, 400 µM codeine.

Experiment [8] deals with CBA-0 (DNA, aptamer) CCCCCTGGGTCGGGAGGGAAGGGGGTTGGGGGTGCGG
As to the kind of experiment: ITC. The following applies: 140 mM NaCl, 2.5 mM KCl, K/Na phosphate (PBS), 2.5 mM MgCl2; PBS with MgCl2, pH 7.4, 25 °C.

Experiment [9] concerns CBA-1 (DNA, aptamer) CCCCCTGGGTCGGGAGGGAAGGGGGTTGGGGGTGCGGG
Put plainly: UV melting at 265 nm. Particulars: 140 mM NaCl, 2.5 mM KCl, K/Na phosphate (PBS), 2.5 mM MgCl2; PBS with MgCl2, pH 7.4; 4 µM DNA, 8 µM codeine.

For experiment [10], the system named is CBA-1-strand21 (DNA, aptamer) GGGGGTGGGTCGGGAGGGAACCCCCTTGGGGGTGCGGG
Put plainly: ITC. The following applies: 140 mM NaCl, 2.5 mM KCl, K/Na phosphate (PBS), 2.5 mM MgCl2; PBS with MgCl2, pH 7.4, 25 °C; 250 µM codeine in syringe.

Experiment [11] concerns CBA-1-AAT (DNA, aptamer) TTTCCCCCTGGGTCGGGAGGGAAGGGGGAAATTAAAGGGGGTGCGGG
As to the kind of experiment: ITC. The following applies: 140 mM NaCl, 2.5 mM KCl, K/Na phosphate (PBS), 2.5 mM MgCl2; PBS with MgCl2, pH 7.4, 25 °C.

The subject of experiment [12] is CBA-1-1/CBA-1-2 (DNA, aptamer) CCCCCTGGGTCGGGAGGGAAGGGGGT/TGGGGGTGCGGG
Put plainly: UV melting at 265 nm. The following applies: 140 mM NaCl, 2.5 mM KCl, K/Na phosphate (PBS), 2.5 mM MgCl2; PBS with MgCl2, pH 7.4.

Experiment [13] deals with FAM-labeled CBA-1 (DNA, aptamer) CCCCCTGGGTCGGGAGGGAAGGGGGTTGGGGGTGCGGG
Put plainly: DMS footprinting. Particulars: 140 mM NaCl, 2.5 mM KCl, K/Na phosphate (PBS), 2.5 mM MgCl2; binding buffer, room temperature.

For experiment [14], the system named is CBA-1-A20AP (DNA, aptamer, 2-aminopurine at 20) CCCCCTGGGTCGGGAGGGAAGGGGGTTGGGGGTGCGGG
Put plainly: 2-aminopurine fluorescence quenching. Particulars: 140 mM NaCl, 2.5 mM KCl, K/Na phosphate (PBS), 2.5 mM MgCl2; 1 µM codeine, 25 °C.

The subject of experiment [15] is FAM-labeled CBA-0 (DNA, aptamer) CCCCCTGGGTCGGGAGGGAAGGGGGTTGGGGGTGCGG
As to the kind of experiment: DMS footprinting. Particulars: 140 mM NaCl, 2.5 mM KCl, K/Na phosphate (PBS), 2.5 mM MgCl2; binding buffer, room temperature.

The subject of experiment [16] is CBA-1-strand3 (DNA, aptamer) CCCCCTGGGTCGGGAGGGAAGGGGGTTTATATTGCGGG
Put plainly: ITC. The following applies: 140 mM NaCl, 2.5 mM KCl, K/Na phosphate (PBS), 2.5 mM MgCl2; PBS with MgCl2, pH 7.4, 25 °C; 250 µM codeine in syringe.

Experiment [17] deals with CBA-1-strand1 (DNA, aptamer) AAAAATGGGTCGGGAGGGAAGGGGGTTGGGGGTGCGGG
Put plainly: ITC. The following applies: 140 mM NaCl, 2.5 mM KCl, K/Na phosphate (PBS), 2.5 mM MgCl2; PBS with MgCl2, pH 7.4, 25 °C; 250 µM codeine in syringe.

Experiment [18] concerns CBA-1-G34T (DNA, aptamer) CCCCCTGGGTCGGGAGGGAAGGGGGTTGGGGGTTCGGG
As to the kind of experiment: ITC. The following applies: 140 mM NaCl, 2.5 mM KCl, K/Na phosphate (PBS), 2.5 mM MgCl2; PBS with MgCl2, pH 7.4, 25 °C.

Experiment [19] has as its system CBA-1-A15AP (DNA, aptamer, 2-aminopurine at 15) CCCCCTGGGTCGGGAGGGAAGGGGGTTGGGGGTGCGGG
Put plainly: 2-aminopurine fluorescence quenching. The following applies: 140 mM NaCl, 2.5 mM KCl, K/Na phosphate (PBS), 2.5 mM MgCl2; 1 µM codeine, 25 °C.

Experiment [20] relates to CBA-1-GGC (DNA, aptamer) CCCCCCCCTGGGTCGGGAGGGAAGGGGGGGGTTGGGGGGGGTGCGGG
As to the kind of experiment: ITC. The following applies: 140 mM NaCl, 2.5 mM KCl, K/Na phosphate (PBS), 2.5 mM MgCl2; PBS with MgCl2, pH 7.4, 25 °C.

Experiment [21] deals with CBA-1-G14A (DNA, aptamer) CCCCCTGGGTCGGAAGGGAAGGGGGTTGGGGGTGCGGG
Put plainly: ITC. Particulars: 140 mM NaCl, 2.5 mM KCl, K/Na phosphate (PBS), 2.5 mM MgCl2; PBS with MgCl2, pH 7.4, 25 °C.

One may read the Kd as the constant that tells how readily two partners part at equilibrium. Lower therefore signals tighter binding.

With `COc1ccc2c3c1O[C@H]1[C@@H](O)C=C[C@H]4[C@@H](C2)N(C)CC[C@@]341`, the Kd in experiment [1] was 70 ± 10 nM; in [4], 300 ± 170 nM; in experiment [8] it was 250 ± 80 nM; in [11] it was 70 ± 30 nM; in experiment [20], 50 ± 20 nM. Moreover, the binding entry is given as “no” in experiment [2]; “no” in experiment [3]; “yes” in experiment [5]; “no” in experiment [6]; “yes” in experiment [7]; “yes” in [9]. Also, the binding entry in experiment [10] is listed as “no”; in experiment [13], “yes”; in experiment [14] it was “yes”; in experiment [15] it was “yes”; in experiment [16], “no”; in experiment [17], “no”. For the same molecule, the binding result is “weak” in experiment [18], “yes” in [19] and “yes” in experiment [21]. Also, the “∆Tm” value in experiment [12] was ~ 4 °C.
